According to PubChem BioAssay (NCI):
Where “and” joins values, the source holds several entries; their conditions need not be identical. Identical values can stand only once.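 96-well plates; 48 h exposure; 5 concentrations. Endpoints by linear interpolation between flanking doses. Not reached: highest tested concentration assigned. GI50: concentration for 50% inhibition of growth. TGI denotes the concentration required for complete inhibition of growth.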

Experiments:
Assay in all cases: NCI-60 cell line screen, 48 h
[1] = system: SF-539 CNS
[2] = system: NCI-H460 lung
[3] = system: UACC-62 melanoma
[4] = system: MCF7 breast
[5] = system: MDA-MB-231 breast
[6] = system: NCI-H23 lung
[7] = system: BT-549 breast
[8] = system: 786-0 renal
[9] = system: SF-295 CNS
[10] = system: MALME-3M melanoma

Compound | GI50 [1] | TGI [1] | GI50 [2] | TGI [2] | GI50 [3] | TGI [3] | GI50 [4] | TGI [4] | GI50 [5] | TGI [5] | GI50 [6] | TGI [6] | GI50 [7] | TGI [7] | GI50 [8] | TGI [8] | GI50 [9] | TGI [9] | GI50 [10] | TGI [10]
Cc1ncc(C(=O)Nc2ccc(CN3CCN(C)CC3)c(C(F)(F)F)c2)cc1C#Cc1cnc(N)c2ncccc12 | 1.12 µM | 2.59 µM | 0.0869 µM | 2.15 µM | 0.0276 µM | 1.31 µM | 1.61 µM | 4.36 µM | 0.0801 µM | 1.18 µM | 0.841 µM | 3.3 µM | 1.65 µM | 18.9 µM | 0.508 µM | 2.88 µM | 1.26 µM | 10.6 µM | < 0.0177 µM | 0.135 µM
O=C(O)c1ccc(NCc2nc3cc4ccccc4cc3[nH]2)cc1 | – | > 100 µM | – | > 100 µM | – | > 100 µM | – | 46.9 µM | – | > 100 µM | – | > 100 µM | – | > 100 µM | – | > 100 µM | – | > 100 µM | – | 0.237 µM
COc1cccc(-n2ncc3c(N/N=C/c4ccc(S(C)(=O)=O)cc4)ncnc32)c1 | 6.22 µM | > 25 µM | 6.56 µM | > 25 µM | 3.47 µM | > 16.9 µM | 9.87 µM | > 25 µM | 9.09 µM | > 24.1 µM | 11.9 µM | > 25 µM | 13.5 µM | > 25 µM | 7.1 µM | 20.1 µM | 12.3 µM | > 25 µM | 4.21 µM | > 25 µM
Nc1ccn(C2CC(O)C(CO)O2)c(=O)n1 (centres undefined) | > 5000 µM | > 5000 µM | > 5000 µM | > 5000 µM | > 5000 µM | > 5000 µM | > 5000 µM | > 5000 µM | > 5000 µM | > 5000 µM | > 5000 µM | > 5000 µM | > 5000 µM | > 5000 µM | > 5000 µM | > 5000 µM | > 5000 µM | > 5000 µM | > 5000 µM | > 5000 µM
O=C(O)CCCSc1nc2ccccc2s1 | – | > 100 µM | – | > 100 µM | – | > 100 µM | – | > 100 µM | – | > 100 µM | – | > 100 µM | – | > 100 µM | – | > 100 µM | – | > 100 µM | – | > 100 µM
COc1ccc2[nH]c(=O)c(/C=C/C(=O)/C=C/c3ccc(O)c(OC)c3)cc2c1 | 1.58 µM | 3.21 µM | 2.04 µM | 5 µM | 1.52 µM | 3.19 µM | 0.388 µM | 1.89 µM | 1.92 µM | 3.78 µM | 2.04 µM | 4.88 µM | 1.37 µM | 2.66 µM | 1.59 µM | 3.17 µM | 2.36 µM | 7.36 µM | 2.16 µM | 5.28 µM
CCOC(=O)c1ccc(Nc2sc(C(=O)c3cccc([N+](=O)[O-])c3)c(N)c2C#N)cc1 | 0.0885 µM | 13.2 µM | 0.0519 µM | 4.14 µM | 0.0789 µM | 23.4 µM | 0.102 µM | 13.2 µM | 1.1 µM | 9.63 µM | 0.425 µM | 22.6 µM | 0.0568 µM | 39.4 µM | 0.122 µM | 15.3 µM | 0.0228 µM | 0.102 µM | 0.0754 µM | 23 µM
O=C(NNc1ccccc1)OCc1ccccc1 | 2.91 µM | 10.3 µM | 4.43 µM | > 100 µM | 0.462 µM | 8.43 µM | 26.2 µM | > 100 µM | 11.3 µM | > 100 µM | 69.5 µM | > 100 µM | 16.6 µM | 85.5 µM | 7.01 µM | > 100 µM | 2.81 µM | 28.2 µM | 20.1 µM | 96.6 µM
CN1CCN(Cc2ccc(NC(=O)c3nc4ccc5[nH]ncc5c4c4c3CCC4)cc2C(F)(F)F)CC1 | 0.879 µM | 1.58 µM | 0.926 µM | 1.73 µM | 1.88 µM | 6.94 µM | 0.906 µM | 1.82 µM | 0.924 µM | 1.68 µM | 1.07 µM | 3.22 µM | 7.61 µM | 14.9 µM | 0.859 µM | 1.56 µM | 6.97 µM | 13.8 µM | 0.8 µM | 1.52 µM
CCCCCCCCCCCC[n+]1ccccc1 | 1.47 µM | 4.9 µM | 1.76 µM | 4.58 µM | 1.17 µM | 2.81 µM | 1.25 µM | 9.38 µM | 1.34 µM | 3.4 µM | 0.488 µM | 5.67 µM | 1.01 µM | 3.03 µM | 1.48 µM | 3.42 µM | 1.39 µM | 4.1 µM | 1.18 µM | 3.41 µM
O=C1c2ccccc2-c2n[nH]c3cccc1c23 | 25.1 µM | > 100 µM | 8.6 µM | > 100 µM | 19.7 µM | 86.6 µM and > 100 µM | 21.1 µM | > 100 µM | 35.8 µM | > 100 µM | – | 58.1 µM and > 100 µM | 19.3 µM | > 100 µM | 11.9 µM | > 100 µM | – | 86.3 µM and > 100 µM | 24.1 µM | 58.9 µM and > 86.8 µM
Cc1ccc(N=Nc2c(N)nn(-c3ccccc3)c2N)cc1 | 1.78 µM | > 22.8 µM | 1.07 µM | > 100 µM | 0.874 µM | > 100 µM | 0.67 µM | > 100 µM | 7.41 µM | > 100 µM | 2.29 µM | – | 0.737 µM | > 100 µM | 0.755 µM | – | 1.83 µM | > 57.1 µM | – | > 100 µM
S=C=NCc1ccccc1 | – | 3.79 µM | – | 24.5 µM | – | 14.1 µM | – | 28.6 µM | – | 5.14 µM | – | 15.2 µM | – | 5.12 µM | – | 1.65 µM | – | 19.4 µM | – | 19.6 µM
C=CC(=O)N1CCC([C@@H]2CCNc3c(C(N)=O)c(-c4ccc(Oc5ccccc5)cc4)nn32)CC1 | 16.8 µM | 56.4 µM | 29.8 µM | > 89.7 µM | 11.4 µM | 26.6 µM | 23.1 µM | > 100 µM | 18.4 µM | 56.4 µM | 17.5 µM | 43.2 µM | 11.9 µM | 31 µM | 12.9 µM | 53.1 µM | 22.4 µM | > 76.6 µM | 11.6 µM | 26.8 µM
N#Cc1cccc(/C=C(/C(=O)c2ccccc2)c2ccccc2)c1 | 5.55 µM | 18.4 µM | 3.85 µM | 19.6 µM | 4.1 µM | 24.6 µM | 3.85 µM | 15.9 µM | 4.25 µM | > 100 µM | 3.52 µM | 17.1 µM | 4.16 µM | 15.1 µM | 6.73 µM | 23.8 µM | 4.23 µM | 17.1 µM | 9.61 µM | 27.8 µM
CC1(C)CC(OCCCC[P+](c2ccccc2)(c2ccccc2)c2ccccc2)CC(C)(C)N1O | 0.327 µM | 10.2 µM | 0.282 µM | 1.52 µM | 0.392 µM | 1.64 µM | 0.203 µM | 1.2 µM | 0.252 µM | 0.832 µM | 0.254 µM | 1.95 µM | 0.274 µM | 1.04 µM | 0.738 µM | 2.23 µM | 0.337 µM | 1.39 µM | 0.317 µM | 1.07 µM
CC[C@H](C)[C@H](NC(=O)Nc1ccccc1)C(=O)N(C)[C@H](C[C@@H](OC(C)=O)c1nc(C(=O)N[C@@H](Cc2ccccc2)C[C@H](C)C(=O)OC)cs1)C(C)C | 2.37 µM | 6.85 µM | 2.83 µM | > 100 µM | 1.27 µM | > 100 µM | 1.27 µM | > 100 µM | 3.36 µM | 22.1 µM | 5.8 µM | > 100 µM | 3.09 µM | 41.2 µM | 3.56 µM | > 100 µM | 2.76 µM | > 100 µM | 98.2 µM | > 100 µM
COc1ccc2c(c1)sc1nc(-c3ccccc3)c(-c3ccc(O)c(OC)c3)n12 | 6.63 µM | > 100 µM | 6.51 µM | > 100 µM | 8.29 µM | > 100 µM | 28.6 µM | > 100 µM | 9.8 µM | > 100 µM | 95.5 µM | > 100 µM | 17.5 µM | > 100 µM | 30.9 µM | > 100 µM | 8 µM | > 100 µM | > 100 µM | > 100 µM
CCN(CC)CCCOc1cc(O)c2c(=O)cc(-c3ccccc3)oc2c1 | 6.65 µM | 19.5 µM | 4.2 µM | 14.6 µM | 3.89 µM | 12.7 µM | 4.16 µM | 16.2 µM | 6.54 µM | 18.9 µM | 11.4 µM | 23.4 µM | 13.3 µM | 26.6 µM | 11.3 µM | 24.1 µM | 11.9 µM | 28.1 µM | 9.81 µM | 25 µM
NC(CSc1nc2ccccn2c1[N+](=O)[O-])C(=O)O (centres undefined) | – | > 100 µM | – | > 100 µM | – | > 100 µM | – | > 100 µM | – | > 100 µM | – | > 100 µM | – | > 100 µM | – | > 100 µM | – | > 100 µM | – | > 100 µM
COC(=O)c1ccc2c(c1)C(=O)c1c-2n(CCCN)c(=O)c2cc([N+](=O)[O-])ccc12 | < 0.0196 µM | 0.21 µM | 0.0434 µM | 1.1 µM | < 0.0254 µM | 0.398 µM | < 0.01 µM | 0.214 µM | 0.426 µM | 0.96 µM | < 0.0318 µM | 1.28 µM | 0.265 µM | 1.77 µM | < 0.025 µM | 0.302 µM | < 0.01 µM | – | 0.038 µM | 1.36 µM
